Results published in publication PMC4113456, “Atypical Signaling and Functional Desensitization Response of MAS Receptor to Peptide Ligands” (PLoS ONE, 2014).
Residue numbers refer to the chain shown, from its start. Read-outs that look alike come from different tables or passages of the source.

Columns and labels:
[1] = molecular target: T1, MAS T270A mutant (Homo sapiens, UniProt P04201, T270A); assay: Calcium assay, T270A MAS mutant stable cell line; format: cell-based
T1 construct: expressed in transfected cells
T1 sequence (P04201 1-325 T270A): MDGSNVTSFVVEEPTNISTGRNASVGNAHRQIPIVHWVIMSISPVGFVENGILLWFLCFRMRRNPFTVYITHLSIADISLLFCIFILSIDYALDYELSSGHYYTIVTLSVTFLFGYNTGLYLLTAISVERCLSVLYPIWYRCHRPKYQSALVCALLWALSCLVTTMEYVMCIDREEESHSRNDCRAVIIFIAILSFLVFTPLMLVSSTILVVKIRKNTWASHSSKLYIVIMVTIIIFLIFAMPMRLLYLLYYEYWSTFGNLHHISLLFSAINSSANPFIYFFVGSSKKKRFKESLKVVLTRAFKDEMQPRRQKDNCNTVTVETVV
Description: (§1) The assay was performed using FLIPR Calcium 5 assay kit (Molecular Devices, Sunnyvale, CA). For calcium measurements, cells at a density of 125,000 cells/well in 100 µl medium were seeded onto a 96-well clear bottom black cell culture plate that was pre-coated with poly-L-lysine. In the calcium assays the cell density of 125,000 cells/well was consistently maintained to minimize variability between independent experiments. The cells were seeded in induction media to induce MAS expression or in complete media for negative controls. The plate was maintained in a cell culture incubator for 26–28 h. The cells were then serum starved for 2 h by replacing the medium with 100 µl of serum free DMEM. In the case of pre-treatment with pan-inhibitor of G protein signaling, BIM-46187, the cells were initially serum starved for 1 h by replacing the medium with 50 µl of serum free DMEM. After 1 h, 50 µl of BIM-46187 was added to the cells to a final concentration of 25 µM and treated for another 1 h. Following serum starvation, 100 µl of calcium sensitive dye along with 2x (2.5 mM final concentration) probenecid (Life Technologies, Grand Island, NY) was added to the cells. During this step, AR-inverse agonist or BIM-46187 was also added at desired concentrations to the calcium dye preparation in case of experiments where cells were pre-treated with these inhibitors. The cells were maintained for one hour in the cell culture incubator. […] The instrument was programmed in FLEX mode to add ligands (50 µl at 5x concentration) to the cells and to monitor the fluorescence before and after adding the ligands. […]
(§2) The kinetic parameter t1/2 (time taken to reach half of the maximum response) was determined using SoftMax Pro software supplied with the FlexStation 3 instrument (Molecular Devices, Sunnyvale, CA).
(§3) For re-stimulation assays, the data is expressed as the percentage of maximum agonist stimulation to allow for ready comparison between individual experiments. […]

[2] = molecular target: T2, MAS (Homo sapiens, UniProt P04201); parameters: method as in ref [9] (a number printed in a supplementary file, which may have a reference list of its own: not looked up in the article's list); conditions: ref [9], read-out: EC50 (cAMP assay); cited from earlier work
T2 construct: expressed in transfected cells
T2 sequence (P04201 1-325): T1 sequence (P04201 1-325 T270A) with A270T

[3] = molecular target: T2, MAS; assay: SRF-RE luciferase reporter assay (Gα12-dependent), induced WT MAS stable cell line; format: cell-based; conditions: induced cells
Description: The luciferase assay was performed using pGL4 luciferase reporter vectors and Dual-Glo Luciferase Assay System (Promega, Madison, WI). For this assay, the inducible MAS stable cells were initially plated in a 10 cm plate and left overnight in a cell culture incubator. The following day the cells were transfected with 5 µg of pGL4.34 plasmid containing serum response factor response element (SRF-RE)-firefly luciferase reporter gene and 1 µg of pGL4.73 plasmid containing renilla luciferase (as a transfection efficiency control). […] After 8 h of transfection and induction, the cells were seeded onto a 96-well clear bottom black cell culture plate (pre-coated with poly-L-lysine) at a density of 125,000 cells/well in 100 µl of minimal medium (with reduced serum of 0.5%). The plate was maintained in a cell culture incubator for 18–20 h. At this point 50 µl of media in the cells was replaced with 50 µl of serum free media containing ligands at 2x the desired concentration and incubated for an additional 6 h. Finally, the luciferase activity in the cells was measured according the protocol provided by the manufacturer. The luminescence measurements (RLU) in the cells were obtained on FlexStation 3 instrument.
For re-stimulation assays, the data is expressed as the percentage of maximum agonist stimulation to allow for ready comparison between individual experiments. […] In the luciferase assay, the luminescence measurements (RLU) are presented as a ratio of firefly to renilla luciferase activity. For all the assays, the EC50 and IC50 values were estimated by fitting the data to a three parameter dose response using GraphPad Prism software (GraphPad, La Jolla, CA).

[4] = molecular target: T3, MAS M244A mutant (Homo sapiens, UniProt P04201, M244A); assay: Calcium assay, M244A MAS mutant stable cell line; format: cell-based
T3 construct: expressed in transfected cells
T3 sequence (P04201 1-325 M244A): T1 sequence (P04201 1-325 T270A) with M244A, A270T
Description: as §1, §2, §3

[5] = molecular target: T4, MAS I191A mutant (Homo sapiens, UniProt P04201, I191A); assay: Calcium assay, I191A MAS mutant stable cell line; format: cell-based
T4 construct: expressed in transfected cells
T4 sequence (P04201 1-325 I191A): T1 sequence (P04201 1-325 T270A) with I191A, A270T
Description: as §1, §2, §3

[6] = molecular target: T3, MAS M244A mutant; assay: IP1 assay, M244A MAS mutant stable cell line; format: cell-based
Description: The WT MAS expression construct was synthesized with an N-terminal myc-tag (Figure 1) by GenScript (Piscataway, NJ). The myc-tagged WT MAS from this vector was initially sub-cloned into pcDNA3.1 and later sub-cloned into tetracycline/doxycycline inducible vector pcDNA 5/TO (Life Technologies, Grand Island, NY). Four different ligand binding MAS mutants (F112A, I191A, M244A and T270A) were created using site-directed mutagenesis of WT myc-tagged MAS in pcDNA3.1 or pcDNA 5/TO vector background (Agilent Technologies, Santa Clara, CA). […]
IP1 levels in the cells were measured using the IP-One Tb kit (Cisbio US, Bedford, MA). […] Time-resolved ratiometric fluorescence emission measurements at 665 nm and 620 nm were taken after excitation at 343 nm on FlexStation 3 instrument. […]
For re-stimulation assays, the data is expressed as the percentage of maximum agonist stimulation to allow for ready comparison between individual experiments. For the IP1 assay, a standard curve was generated using the 4-Parameter logistic equation fit of the HTRF readings of IP1 standards using the SoftMax Pro software. […] In the luciferase assay, the luminescence measurements (RLU) are presented as a ratio of firefly to renilla luciferase activity. […]

Question: For `COc1cc([N+](=O)[O-])ccc1S(=O)(=O)N1CC(CN2CCN(c3ccccn3)CC2)C(c2cccc(F)c2)C1` (centres unmarked) [AR-agonist], which “EC50, Calcium assay” value [1] is on record?
Answer: The value was “cbd”.

Question: And the “t1/2, Calcium assay” value [1]?
Answer: Its value is 40.0 ± 1.2 s.

Question: And the EC50 [2]?
Answer: Its EC50 is 0.72 µM.

Question: And the EC50 [3]?
Answer: Its EC50 is 0.5 ± 0.1 µM.

Question: And the “EC50, Calcium assay” value [4]?
Answer: The value was “cbd”.

Question: And the “t1/2, Calcium assay” value [4]?
Answer: Its value is “cbd”.

Question: And the EC50 [5]?
Answer: The EC50 was 17.6 ± 3.8 µM.

Question: And the “t1/2, Calcium assay” value [5]?
Answer: Its value is 68.3 ± 5.3 s.

Question: And the “EC50, IP1 assay” value [6]?
Answer: The value was “cbd”.

Question: What does the source list for `C=CCCN1CCC2(CC1)CN(C(=O)c1c(F)cccc1F)c1ccc(Cl)cc12` [AR-inverse]?
Answer: IC50 [3]: 0.4 ± 0.1 µM; IC50, IP1 assay [6]: cbd
